# Test results reported in PubChem BioAssay AID1963423 (Molecular Pharmacology Branch, DTP, NCI, 2024).
# System: 439559-082-T-J2-PDC complex spheroid growth
# Assay: Anticancer human tumor 439559-082-T-J2-PDC patient-derived colon adenocarcinoma cell line growth inhibition [Asc]
# Settings: for IC50: curve of first compound; for viability, T/C: stronger effect = lower value
# Procedure, shortened: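 Stromal components (HUVEC and hMSC) are co-assembled with the cancer cells into multicellular spheroids. Drugs are then added singly or paired, at concentrations falling by half-log increments from a clinically achievable maximum, capped at 10 microM without known Cmax.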
# [1] = second compound 0.00316 µM, first compound 0.0316 µM
# [2] = second compound 0.00316 µM, first compound 0.1 µM
# [3] = second compound 0.00316 µM, first compound 0.316 µM
# [4] = second compound 0.00316 µM, first compound 1 µM
# [5] = second compound 0.01 µM, first compound 0.0316 µM
# [6] = second compound 0.01 µM, first compound 0.1 µM
# [7] = second compound 0.01 µM, first compound 0.316 µM
# [8] = second compound 0.01 µM, first compound 1 µM
# [9] = second compound 0.0316 µM, first compound 0.0316 µM
# [10] = second compound 0.0316 µM, first compound 0.1 µM
# [11] = second compound 0.0316 µM, first compound 0.316 µM
# [12] = second compound 0.0316 µM, first compound 1 µM
# [13] = second compound 0.1 µM, first compound 0.0316 µM
# [14] = second compound 0.1 µM, first compound 0.1 µM
# [15] = second compound 0.1 µM, first compound 0.316 µM
# [16] = second compound 0.1 µM, first compound 1 µM
# [17] = second compound 0.316 µM, first compound 0.0316 µM
# [18] = second compound 0.316 µM, first compound 0.1 µM
# [19] = second compound 0.316 µM, first compound 0.316 µM
# [20] = second compound 0.316 µM, first compound 1 µM
# [21] = second compound 1 µM, first compound 0.0316 µM
# [22] = second compound 1 µM, first compound 0.1 µM
# [23] = second compound 1 µM, first compound 0.316 µM
# [24] = second compound 1 µM, first compound 1 µM
# 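Note: spheroids exposed to agents for 7 days starting day 3 after seeding.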
# 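Throughout, for viability, T/C: percent of DMSO vehicle control viability with 100% = vehicle.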
compound,measurement,setting,value
C=CC(=O)N1CCN(c2nc(=O)n(-c3c(C)ccnc3C(C)C)c3nc(-c4c(O)cccc4F)c(F)cc23)C(C)C1 (centres undefined) + CNC(C)C(=O)NC1CN(S(=O)(=O)c2cccc(S(=O)(=O)N3CCC4CCC(C(=O)NC(c5ccccc5)c5ccccc5)N4C(=O)C(NC(=O)C(C)NC)C3)c2)CCC2CCC(C(=O)NC(c3ccccc3)c3ccccc3)N2C1=O,IC50,second compound 0.00316 µM,> 10000 nM
same,IC50,second compound 0.01 µM,> 10000 nM
same,IC50,second compound 0.0316 µM,> 10000 nM
same,IC50,second compound 0.1 µM,> 10000 nM
same,IC50,second compound 0.316 µM,> 10000 nM
same,IC50,second compound 1 µM,> 10000 nM
same,"viability, T/C",[1],103%
same,"viability, T/C",[2],94.8%
same,"viability, T/C",[3],97.2%
same,"viability, T/C",[4],101%
same,"viability, T/C","second compound 0.00316 µM, first compound 3.16 µM",105%
same,"viability, T/C","second compound 0.00316 µM, first compound 10 µM",102%
same,"viability, T/C",[5],110%
same,"viability, T/C",[6],94.9%
same,"viability, T/C",[7],95.5%
same,"viability, T/C",[8],107%
same,"viability, T/C","second compound 0.01 µM, first compound 3.16 µM",111%
same,"viability, T/C","second compound 0.01 µM, first compound 10 µM",103%
same,"viability, T/C",[9],93.6%
same,"viability, T/C",[10],95.3%
same,"viability, T/C",[11],89.9%
same,"viability, T/C",[12],99%
same,"viability, T/C","second compound 0.0316 µM, first compound 3.16 µM",95%
same,"viability, T/C","second compound 0.0316 µM, first compound 10 µM",99.6%
same,"viability, T/C",[13],111%
same,"viability, T/C",[14],105%
same,"viability, T/C",[15],100%
same,"viability, T/C",[16],93.8%
same,"viability, T/C","second compound 0.1 µM, first compound 3.16 µM",104%
same,"viability, T/C","second compound 0.1 µM, first compound 10 µM",91.3%
same,"viability, T/C",[17],105%
same,"viability, T/C",[18],109%
same,"viability, T/C",[19],99.9%
same,"viability, T/C",[20],105%
same,"viability, T/C","second compound 0.316 µM, first compound 3.16 µM",94%
same,"viability, T/C","second compound 0.316 µM, first compound 10 µM",103%
same,"viability, T/C",[21],81.9%
same,"viability, T/C",[22],78%
same,"viability, T/C",[23],85.4%
same,"viability, T/C",[24],76.3%
same,"viability, T/C","second compound 1 µM, first compound 3.16 µM",101%
same,"viability, T/C","second compound 1 µM, first compound 10 µM",93.6%
COc1c(OCCCN2CCOCC2)ccc2c3n(c(=NC(=O)c4cnc(N)nc4)nc12)CCN3 + CNC(C)C(=O)NC1CN(S(=O)(=O)c2cccc(S(=O)(=O)N3CCC4CCC(C(=O)NC(c5ccccc5)c5ccccc5)N4C(=O)C(NC(=O)C(C)NC)C3)c2)CCC2CCC(C(=O)NC(c3ccccc3)c3ccccc3)N2C1=O,IC50,second compound 0.00316 µM,> 1000 nM
same,IC50,second compound 0.01 µM,> 1000 nM
same,IC50,second compound 0.0316 µM,> 1000 nM
same,IC50,second compound 0.1 µM,> 1000 nM
same,IC50,second compound 0.316 µM,> 1000 nM
same,IC50,second compound 1 µM,380 nM
same,"viability, T/C","second compound 0.00316 µM, first compound 0.00316 µM",100%
same,"viability, T/C","second compound 0.00316 µM, first compound 0.01 µM",95.2%
same,"viability, T/C",[1],98.9%
same,"viability, T/C",[2],80.8%
same,"viability, T/C",[3],72.6%
same,"viability, T/C",[4],64.7%
same,"viability, T/C","second compound 0.01 µM, first compound 0.00316 µM",102%
same,"viability, T/C","second compound 0.01 µM, first compound 0.01 µM",88.6%
same,"viability, T/C",[5],99.1%
same,"viability, T/C",[6],84.5%
same,"viability, T/C",[7],73.8%
same,"viability, T/C",[8],63.4%
same,"viability, T/C","second compound 0.0316 µM, first compound 0.00316 µM",93.2%
same,"viability, T/C","second compound 0.0316 µM, first compound 0.01 µM",98.8%
same,"viability, T/C",[9],92.5%
same,"viability, T/C",[10],77.4%
same,"viability, T/C",[11],81.5%
same,"viability, T/C",[12],71.2%
same,"viability, T/C","second compound 0.1 µM, first compound 0.00316 µM",96.2%
same,"viability, T/C","second compound 0.1 µM, first compound 0.01 µM",109%
same,"viability, T/C",[13],82.2%
same,"viability, T/C",[14],78.9%
same,"viability, T/C",[15],70.5%
same,"viability, T/C",[16],62.6%
same,"viability, T/C","second compound 0.316 µM, first compound 0.00316 µM",94.9%
same,"viability, T/C","second compound 0.316 µM, first compound 0.01 µM",89%
same,"viability, T/C",[17],85.1%
same,"viability, T/C",[18],66.3%
same,"viability, T/C",[19],61.3%
same,"viability, T/C",[20],58.6%
same,"viability, T/C","second compound 1 µM, first compound 0.00316 µM",80.8%
same,"viability, T/C","second compound 1 µM, first compound 0.01 µM",74.5%
same,"viability, T/C",[21],65.6%
same,"viability, T/C",[22],53.1%
same,"viability, T/C",[23],53.8%
same,"viability, T/C",[24],44.8%
